# Results reported in patent US20190254984A1, “COMPOSITION AND FOOD OR DRINK” (Advanced Medical Frontier Co., Ltd., priority 2012, published 2019).
# What was measured:
# ERdj4 = test: Example 5: ER stress marker gene expression in tissues (real time PCR), ERdj4; type: in vivo, mice; conditions: Orz even at 320 μg/g of body weight/day
# Procedure: (§1) γ-oryzanol incorporated with PLGA particles was dissolved in distilled water (hereinafter referred to as “Nano Orz”) and administered to the mice using a probe at a dose of 0.3, 1.3, or 5 μg/g of body weight per day for two days every two weeks. As a solution of γ-oryzanol which was not enclosed in the PLGA particle, γ-oryzanol (manufactured by Wako Pure Chemical Industries, Ltd.) was dissolved in a 0.5% methylcellulose solution (hereinafter referred to as “Orz”). Orz was administered to the stomach using a probe everyday for four weeks (5 or 320 μg/g of body weight/day).
# (§2) The hypothalamus, the islets of Langerhans, the adipose tissue of the mesentery, the liver, the epididymal adipose tissue, and the subcutaneous adipose tissue were collected from the mice; and the expression level of ER stress marker genes (Chop, ERdj4, and Xbp1s), and inflammation marker genes (TNF-α and MCP-1) was quantified using a quantitative real time polymerase chain reaction. The islets of Langerhans was isolated from mice by digestion with collagenase (Liberase TL; manufactured by Roche Diagnostics K.K.) and purified using Histopaque (trademark) gradient (Histopaque 1077; manufactured by Sigma-Aldrich). […]
# (§3) Data were expressed as mean±standard error (s.e.m). […]
# Xbp1s = test: Example 5: ER stress marker gene expression in tissues (real time PCR), Xbp1s; type: in vivo, mice; conditions: Orz even at 320 μg/g of body weight/day, N=8
# Procedure: as §1
# (§4) The hypothalamus, the islets of Langerhans, the adipose tissue of the mesentery, the liver, the epididymal adipose tissue, and the subcutaneous adipose tissue were collected from the mice; and the expression level of ER stress marker genes (Chop, ERdj4, and Xbp1s), and inflammation marker genes (TNF-α and MCP-1) was quantified using a quantitative real time polymerase chain reaction. The islets of Langerhans was isolated from mice by digestion with collagenase (Liberase TL; manufactured by Roche Diagnostics K.K.) and purified using Histopaque (trademark) gradient (Histopaque 1077; manufactured by Sigma-Aldrich).
# (§5) Using TRIzol (registered trademark) RNA Isolation Reagents (manufactured by Life Technologies Corporation), total RNA was extracted from each of the tissues; and cDNA was synthesized using iScript (trademark) cDNA Synthesis Kit (manufactured by Bio-Rad Laboratories, Inc.). Next, quantitative real time PCR was carried out using StepOnePlus (trademark) Real-Time PCR System, Fast TaqMan Universal Master Mix, and Fast SYBR Green Master Mix (manufactured by Applied Biosystems). The level of mRNA was normalized with that of 18S rRNA.
# (§6) Data were expressed as mean±standard error (s.e.m). One-way analysis of variance, repeated measures analysis of variance, and multiple comparisons following repeated measures analysis of variance (Bonferroni/Dunn method) were employed as appropriate. For analysis of difference between two groups, Student's t-test was employed. […]
# Chop = test: Example 5: ER stress marker gene expression in tissues (real time PCR), Chop; type: in vivo, mice; conditions: for expression level of Chop: hypothalamus, Orz even at 320 μg/g of body weight/day
# Procedure: as §1, §4, §5, §6
# ob/ob mice [1] = test: Example 2: blood glucose level of ob/ob mice; type: in vivo; conditions: γ-oryzanol alone, oral daily 5 and 320 μg/g of body weight/day; FIG. 2B
# Procedure: (§7) First, the γ-oryzanol-incorporating particle was suspended in distilled water at 5%, 1.25%, and 0.31% (w/v). As a control, γ-oryzanol was suspended in 0.5% (w/v) methylcellulose solution (manufactured by Wako Pure Chemical Industries, Ltd.) at 0.05% and 3.2% (0.5 and 32 mg/ml).
# (§8) Subsequently, each of the γ-oryzanol-incorporating particle suspensions and the γ-oryzanol suspensions was orally administered to ob/ob mice (five weeks old, male, B6. Lepob/J mice (homozygote (Lepob/Lepob)), made by Charles River Laboratories Japan, Inc.) (n=6) using a probe. For the details, the γ-oryzanol-incorporating particle suspension at 0.3, 1.3, and 5 μg/g of body weight/14 days in terms of γ-oryzanol was administered to the mice for two days followed by a five-day rest period every two weeks; and observation was made for 14 days. The daily dose was 1.1, 4.4, and 17.5 μg/g of body weight/day, respectively. […]
# (§9) One week and two weeks after the beginning of the administration, the body weight and blood glucose level of the mice were measured. […] In such a test, following to 18-hour fasting, glucose was orally administered at 0.75 g/kg using a probe; and the blood glucose level was measured from the time of administration to two hours thereafter.
# ob/ob mice [2] = test: Example 2: body weight of ob/ob mice after oral administration; type: in vivo; conditions: γ-oryzanol alone, oral daily 5 and 320 μg/g of body weight/day; FIG. 1B
# Procedure: The γ-oryzanol-incorporating particle prepared in Example 1 was orally administered to mice for evaluation.
# as §7, §8, §9
# ob/ob mice [3] = test: Example 5: blood glucose level of genetically obese mice over four weeks; type: in vivo; conditions: Orz even at 320 μg/g of body weight/day, n=14, FIG. 10B
# Procedure: (§10) Ob/ob mice were raised at 24° C. under a light/dark cycle of 12 hours/12 hours. The mice were raised in conditions where they were able to freely take feed and water. The body weight of mice was measured every week.
# as §1
# Whole blood was collected from the tail vein of mice; and blood glucose was measured using a simple blood glucose meter. A blood sample was further collected from the network of the retro orbital vein. For a glucose tolerance test, the mice were fasted for 18 hours and thereafter administered with glucose at 0.75 g/kg of body weight. The blood glucose level was measured at the predetermined time. […] The concentration of triglycerides in the plasma was determined by Triglyceride E-Test Wako.
# as §3
# ob/ob mice [4] = test: Example 5: body weight of genetically obese mice over four weeks; type: in vivo; conditions: Orz everyday for four weeks, even at 320 μg/g of body weight/day; n=14; FIG. 9B
# Procedure: as §10, §1
# Data were expressed as mean±standard error (s.e.m). One-way analysis of variance, repeated measures analysis of variance, and multiple comparisons following repeated measures analysis of variance (Bonferroni/Dunn method) were employed as appropriate. For analysis of difference between two groups, Student's t-test was employed. Difference was considered to be significant with P<0.05.
# MCP-1 = test: Example 5: inflammation marker gene expression in adipose tissues (real time PCR), MCP-1; type: in vivo, mice; conditions: Orz even at 320 μg/g of body weight/day, N=8
# Procedure: as §1, §2, §3
# ob/ob mice [5] = test: Example 2: oral glucose tolerance test in ob/ob mice; type: in vivo; conditions: γ-oryzanol alone 5 and 320 μg/g of body weight/day; vs vehicle; FIG. 3C, 3D
# Procedure: as §7, §8, §9
# ob/ob mice [6] = test: Example 5: plasma triglyceride; type: in vivo; conditions: Orz at the same amount as Nano Orz; n=6; FIG. 13
# Procedure: as §1
# (§11) Whole blood was collected from the tail vein of mice; and blood glucose was measured using a simple blood glucose meter. A blood sample was further collected from the network of the retro orbital vein. For a glucose tolerance test, the mice were fasted for 18 hours and thereafter administered with glucose at 0.75 g/kg of body weight. The blood glucose level was measured at the predetermined time. In addition, for an insulin tolerance test, insulin (0.5 unit/kg of body weight; manufactured by Eli Lilly) was intraperitoneally injected to the mice that had fasted for four hours. The concentration of triglycerides in the plasma was determined by Triglyceride E-Test Wako.
# as §3
# TNF-α = test: Example 5: inflammation marker gene expression in adipose tissues (real time PCR), TNF-α; type: in vivo, mice; conditions: Orz even at 320 μg/g of body weight/day, N=8
# Procedure: as §1, §2, §3
# obese mice = conditions: oral γ-oryzanol 320 mg/kg; cited from earlier work
# ob/ob mice [7] = test: Example 5: glucose tolerance test; type: in vivo; conditions: Orz even at 320 μg/g of body weight/day; n=14; FIG. 11C, 11D
# Procedure: as §1, §11, §3
# [8] = test system: IL-8 secretion from TNF-α-stimulated intestinal epithelial cells (Caco-2); test: Example 3: IL-8 secretion upon TNF-α stimulation of Caco-2 cells (ELISA); type: cell-based, human; conditions: 24 h pretreatment with 1 μg/ml of γ-oryzanol; a decrease observed; compared with no and 0.1 μg/ml γ-oryzanol; FIG. 7A
# Procedure: As for cells, Caco-2 (RCB0988, RIKEN, the Institute of Physical and Chemical Research) was used. Caco-2 was cultured in a […] culture dish until reaching semiconfluent. As for a medium, Dulbecco modified Eagle's Medium (DMEM, D5796, manufactured by Sigma-Aldrich) was used. To the medium, non-essential amino acids (M7145, manufactured by Sigma-Aldrich) and Penicillin/Streptomycin (hereinafter referred to as “PS”; manufactured by Gibco, Life Technologies Corporation Japan) were added.
# Cells with 50 passages were detached with 0.25% trypsin/0.02% EDTA and seeded in a 24-well plate at a concentration of 2×10^5 cells/well. The cells were cultured in DMEM with 10% FBS (fetal bovine serum), 1% non-essential amino acids, and 1% PS for 14 days. The medium was changed every other day; and the cells were sufficiently differentiated to be used the experiment below.
# The medium was removed 24 hours before stimulation with TNF-α; and the cells were washed with 1 ml of PBS per well twice. […]
# The collected supernatant was subjected to ELISA (enzyme immunity measurement assay) to measure the amount of IL-8 in the supernatant. […] At the same time, the total amount of proteins in the supernatant was measured by using a bicinchoninic acid assay (Pierce BCA Protein Assay Kit, manufactured by Thermo Scientific). […]
# ob/ob mice [9] = test: Example 5: insulin tolerance test; type: in vivo; conditions: Orz even at 320 μg/g of body weight/day; n=14; FIG. 12C, 12D
# Procedure: as §1, §11, §3
substance,measurement,setting,value
γ-oryzanol,expression level of ERdj4,"ERdj4; islets of Langerhans, N=8, FIG. 14C",did not inhibit
same,expression level of ERdj4,"ERdj4; liver, printed in the sentence on Chop (FIG. 15C)",did not inhibit
same,expression level of Xbp1s,"Xbp1s; adipose tissue in the mesentery, FIG. 15B",did not inhibit
same,expression level of Xbp1s,"Xbp1s; islets of Langerhans, FIG. 14D",did not inhibit
same,expression level of Xbp1s,"Xbp1s; liver, FIG. 15D",did not inhibit
same,expression of Chop,"Chop; adipose tissue in the mesentery, Orz 320 μg/g of body weight/day, N=8, FIG. 15A",significantly inhibited
same,expression level of Chop,"Chop; N=8, FIG. 14A",did not inhibit
same,expression level of Chop,Chop; printed in the sentence on ERdj4 (FIG. 14B),did not inhibit
same,blood glucose level,ob/ob mice [1],not observed
same,weight gain,ob/ob mice [2],not observed
same,blood glucose level,ob/ob mice [3],no significant change
same,weight gain,ob/ob mice [4],no significant suppression
same,expression level of MCP-1,"MCP-1; epididymal adipose tissue, FIG. 16B",did not inhibit
same,expression level of MCP-1,"MCP-1; subcutaneous fatty tissue, FIG. 16D",did not inhibit
same,blood glucose level in oral glucose tolerance test,ob/ob mice [5],comparable
same,concentration of plasma triglyceride,ob/ob mice [6],not decreased
same,expression level of TNF-α,"TNF-α; epididymal adipose tissue, FIG. 16A",did not inhibit
same,expression level of TNF-α,"TNF-α; subcutaneous fatty tissue, FIG. 16C",did not inhibit
same,blood glucose level,obese mice,decreased
same,insulin secretion,obese mice,promotion
same,lipid absorption from the small intestine,obese mice,inhibition
same,taste for high fat diets,obese mice,restriction
same,"glucose tolerance (glucose tolerance test, blood glucose and AUC)",ob/ob mice [7],no improvement
same,amount of IL-8 in the supernatant,[8],no significant difference
same,"insulin tolerance (insulin tolerance test, blood glucose and AUC)",ob/ob mice [9],no improvement
